Assay results reported in patent US8937183B2, “Detection of hydrogen peroxide” (Promega Corporation, priority 2011, dated 2015).

Legend:
[1] = Generation of bioluminescence from luciferin borates upon treatment with hydrogen peroxide (luciferase light reaction); type: biochemical; conditions: for light signal increase upon addition of hydrogen peroxide (in words): all pH values 6.87 to 9.18
Protocol: In this example, luciferin borates were incubated with hydrogen peroxide, and luciferin generation was measured using a light reaction catalyzed by luciferase. An increase in light output (bioluminescence) as a result of treatment of the luciferin borates with hydrogen peroxide indicates generation of luciferin as a result of the reaction with hydrogen peroxide.
1 M phosphate solutions (either 6.8 g of KH2PO4 (Fisher) or 11.4 g of K2HPO4 (Sigma) were dissolved in Nanopure water to 1 M) were diluted 1:5 with Nanopure water to produce 200 mM phosphate solutions. 200 mM phosphate buffers at pH 6.87, 7.41, 7.73, 8.04, and 9.18 were prepared. 4 mg/ml solutions of PBI 3048, 4013, 4424 and 4425 (FIG. 1) in DMSO (Fluka 41641) were made from solid powder.
Into two 96-well white, solid bottom luminometer plates (Promega Z3291) (labeled “A” and “B”), 50 μl of 200 mM phosphate buffer pH 6.87 was added to wells A1-H2; 50 μl of 200 mM phosphate pH 7.41 was added to wells A3-H4; 50 μl of 200 mM phosphate buffer pH 7.73 was added to wells A5-H6; 50 μl of 200 mM phosphate buffer pH 8.04 was added to wells A7-H8; and 50 μl of 200 mM phosphate buffer pH 9.18 was added to wells A9-H10.
50 μl of 4 mg/ml PBI 4013 in DMSO was diluted to 1.25 ml with Nanopure water, and 25 μl added to wells A1-D10 of plate A. 50 μl of 4 mg/ml PBI 4424 was diluted to 1.25 ml with Nanopure water, and 25 μl added to E1-H10 of plate A. 50 μl of 4 mg/ml PBI 3048 was diluted to 1.25 ml with Nanopure water, and 25 μl added to A1-D10 of plate B. 50 μl of 4 mg/ml PBI 4425 was diluted to 1.25 ml with Nanopure water, and 25 μl added to E1-H10 of plate B. 25 μl of Nanopure water was added to rows A and E of both plates. 17 μl of Nanopure water was added to rows B and F of both plates; and 8 μl of Nanopure water was added to rows C and G of both plates
A hydrogen peroxide solution (30% hydrogen peroxide, Sigma H1009-5 ml) was diluted to 60 μM hydrogen peroxide with Nanopure water, and 25 μl of the 60 μM hydrogen peroxide was added to rows D and H of both plates; 17 μl of […] hydrogen peroxide was added to rows C and G of both plates; and 8 μl of […] hydrogen peroxide was added to rows B and F of both plates. Both plates A and B were then gently mixed for 70 minutes.
A bottle of Reconstitution Buffer with Esterase (Promega V144B) was thawed and used to reconstitute a Luciferin Detection Reagent (Promega V859B) to create a reconstituted Luciferin Detection Reagent (“LDR”). 15 ml of 1 M HEPES buffer, pH 7.5 was mixed with 25 ml of the LDR, and 80 μl added to wells A1-H10 of two new luminometer plates (“R1” and “R2”).
Following incubation, 20 μl of the contents of wells A1-H10 of plate A was transferred to the same wells in plate R1, and 20 μl of A1-H10 of plate B was transferred to the same wells in plate R2. Plate R1 and R2 were then incubated at room temperature for 15 minutes, and bioluminescence was measured with a GloMax® luminometer (Promega Corp).
Bioluminescence from duplicate wells was averaged, and the average relative light units (RLUs) from samples containing peroxide were compared to those from the samples not containing peroxide incubated at the same pH (Table 1).

[2] = Light generation from compounds following incubation with hydrogen peroxide in different pH solutions (D-cysteine conversion, LDR); type: biochemical; conditions: for Signal to Background Ratios: signal with peroxide to background no peroxide
Protocol: In this experiment, various compounds were tested for their ability to detect hydrogen peroxide in different pH solutions. Several compounds are shown to give much better signal strength and signal to background ratios than PBI 3048 (Example 23). 4 mg/ml solutions of compounds PBI 4480, 4481, 4452, 4470, 4472, 3048 (FIGS. 1 and 2) were made by dissolving them in DMSO (Fluka 41641). 30 μl of the compound solutions was diluted to 1.5 ml with Nanopure water, and 50 μl aliquots added as follows into a white, 96-well luminometer plate: PBI 4481, row A1-12; PBI 4480, row B1-12; PBI 4452, row C1-12; PBI 3048, row D1-12; PBI 4472, row E1-12 and PBI 4470, row F1-12.
25 μl of 200 mM TRIS buffer, pH 7.6 was added to wells A1-F4, 25 μl of 200 mM TRIS buffer, pH 8.8 was added to wells A5-F8, and 25 μl of 200 mM Tris buffer, pH 10.4 was added […].
30% hydrogen peroxide (Sigma H 1009-5 ml) was diluted to 40 μM in Nanopure water, and 25 μl added to columns 3, 4, 7, 8, 11 and 12 of the plate. 25 μl water was added to columns 1, 2, 5, 6, 9, and 10 of the plate, and the plate incubated at room temperature for 60 minutes.
A conversion solution was made by mixing 100 μl of 100 mM D-cysteine, 1 ml Tris Buffer pH 8.8 and 8.9 ml nanopure water. After mixing, 80 μl of the solution was added to wells A1-F12 of a new luminometer plate.
After incubation, 20 μl of sample from wells A1-F12 of the first plate was transferred to the same well in the new luminometer plate. The new plate was incubated at room temperature for 5 minutes, 100 μl of LDR (Example 23) was added to wells A1-F12, and bioluminescence detected on a Glo Max® luminometer (Promega).
The RLUs for the duplicate wells were averaged. The averages for the wells containing hydrogen peroxide were compared to the wells without hydrogen peroxide at the same pH (Table 2). BZT is used to designate benzothiazole derivatives of the compounds.
The Signal to Background (S/B) ratio is used to compare assay reagents with very difference signal strengths. An assay with a higher S/B ratio is often considered a better assay than one with a smaller S/B ratio (with all other factors being relatively equal).

[3] = H2O2 0 μM, phosphate buffer pH 6.87, 70 minutes
[4] = H2O2 0 μM, phosphate buffer pH 7.41, 70 minutes
[5] = H2O2 0 μM, phosphate buffer pH 7.73, 70 minutes
[6] = H2O2 0 μM, phosphate buffer pH 8.04, 70 minutes
[7] = H2O2 0 μM, phosphate buffer pH 9.18, 70 minutes
[8] = H2O2 5 μM, phosphate buffer pH 6.87, 70 minutes
[9] = H2O2 5 μM, phosphate buffer pH 7.41, 70 minutes
[10] = H2O2 5 μM, phosphate buffer pH 7.73, 70 minutes
[11] = H2O2 5 μM, phosphate buffer pH 8.04, 70 minutes
[12] = H2O2 5 μM, phosphate buffer pH 9.18, 70 minutes
[13] = H2O2 10 μM, phosphate buffer pH 6.87, 70 minutes
[14] = H2O2 10 μM, phosphate buffer pH 7.41, 70 minutes
[15] = H2O2 10 μM, phosphate buffer pH 7.73, 70 minutes
[16] = H2O2 10 μM, phosphate buffer pH 8.04, 70 minutes
[17] = H2O2 10 μM, phosphate buffer pH 9.18, 70 minutes
[18] = H2O2 15 μM, phosphate buffer pH 6.87, 70 minutes
[19] = H2O2 15 μM, phosphate buffer pH 7.41, 70 minutes
[20] = H2O2 15 μM, phosphate buffer pH 7.73, 70 minutes
[21] = H2O2 15 μM, phosphate buffer pH 8.04, 70 minutes
[22] = H2O2 15 μM, phosphate buffer pH 9.18, 70 minutes
[23] = pH 7.6 TRIS buffer, No H2O2, 60 minutes
[24] = pH 7.6 TRIS buffer, With H2O2 (25 μl of 40 μM added), 60 minutes
[25] = pH 8.8 TRIS buffer, No H2O2, 60 minutes
[26] = pH 8.8 TRIS buffer, With H2O2 (25 μl of 40 μM added), 60 minutes
[27] = pH 10.4 Tris buffer, No H2O2, 60 minutes
[28] = pH 10.4 Tris buffer, With H2O2 (25 μl of 40 μM added), 60 minutes

Compound	average relative light units (bioluminescence) [1, 3]	average relative light units (bioluminescence) [1, 4]	average relative light units (bioluminescence) [1, 5]	average relative light units (bioluminescence) [1, 6]	average relative light units (bioluminescence) [1, 7]	average relative light units (bioluminescence) [1, 8]	average relative light units (bioluminescence) [1, 9]	average relative light units (bioluminescence) [1, 10]	average relative light units (bioluminescence) [1, 11]	average relative light units (bioluminescence) [1, 12]	average relative light units (bioluminescence) [1, 13]	average relative light units (bioluminescence) [1, 14]	average relative light units (bioluminescence) [1, 15]	average relative light units (bioluminescence) [1, 16]	average relative light units (bioluminescence) [1, 17]	average relative light units (bioluminescence) [1, 18]	average relative light units (bioluminescence) [1, 19]	average relative light units (bioluminescence) [1, 20]	average relative light units (bioluminescence) [1, 21]	average relative light units (bioluminescence) [1, 22]	other results
O=C(O)C1CSC(c2nc3ccc(OCc4c(B(O)O)ccc5ccccc45)cc3s2)=N1 (stereo not drawn) [PBI 4424]	17,522 RLU	16,181 RLU	17,087 RLU	18,602 RLU	17,794 RLU	18,952 RLU	17,583 RLU	18,681 RLU	20,935 RLU	22,309 RLU	19,891 RLU	17,508 RLU	19,298 RLU	20,554 RLU	20,333 RLU	20,263 RLU	19,332 RLU	25,729 RLU	21,486 RLU	20,453 RLU	light signal increase upon addition of hydrogen peroxide (in words) [1]: much smaller
N#Cc1nc2ccc(OCc3ccc(B(O)O)cc3)cc2s1 [PBI 4452, (4-(((2-cyanobenzo[d]thiazol-6-yl)oxy)methyl)phenyl)boronic acid]	–	–	–	–	–	–	–	–	–	–	–	–	–	–	–	–	–	–	–	–	Signal to Background Ratios ([2]; pH 7.6): 1.9; averaged RLUs (bioluminescence) [2, 23]: 607,036 RLU; averaged RLUs (bioluminescence) [2, 24]: 1,182,338 RLU; Signal to Background Ratios ([2]; pH 8.8): 4.4; averaged RLUs (bioluminescence) [2, 25]: 632,327 RLU; averaged RLUs (bioluminescence) [2, 26]: 2,790,924 RLU; Signal to Background Ratios ([2]; pH 10.4): 15.8; averaged RLUs (bioluminescence) [2, 27]: 921,935 RLU; averaged RLUs (bioluminescence) [2, 28]: 14,577,312 RLU
O=C(O)C1CSC(c2nc3ccc(OCc4ccc(B(O)O)c5ccccc45)cc3s2)=N1 (stereo not drawn) [PBI 4013]	421,702 RLU	469,602 RLU	573,023 RLU	585,008 RLU	700,831 RLU	580,978 RLU	760,900 RLU	1,089,717 RLU	1,534,619 RLU	3,678,815 RLU	680,475 RLU	1,020,315 RLU	1,634,356 RLU	2,485,677 RLU	5,433,577 RLU	793,789 RLU	1,282,281 RLU	2,209,227 RLU	3,373,538 RLU	7,062,631 RLU	light signal increase upon addition of hydrogen peroxide (in words) [1]: increased strongly
N#Cc1nc2ccc(OCc3ccc(B(O)O)c(Cl)c3)cc2s1 [PBI 4470, (2-chloro-4-(((2-cyanobenzo[d]thiazol-6-yl)oxy)methyl)phenyl)boronic acid]	–	–	–	–	–	–	–	–	–	–	–	–	–	–	–	–	–	–	–	–	Signal to Background Ratios ([2]; pH 7.6): 1.4; averaged RLUs (bioluminescence) [2, 23]: 492,941 RLU; averaged RLUs (bioluminescence) [2, 24]: 701,300 RLU; Signal to Background Ratios ([2]; pH 8.8): 3.3; averaged RLUs (bioluminescence) [2, 25]: 468,729 RLU; averaged RLUs (bioluminescence) [2, 26]: 1,525,058 RLU; Signal to Background Ratios ([2]; pH 10.4): 16.3; averaged RLUs (bioluminescence) [2, 27]: 819,416 RLU; averaged RLUs (bioluminescence) [2, 28]: 13,391,102 RLU
CC(Oc1ccc2nc(C3=NC(C(=O)O)CS3)sc2c1)c1ccc(B(O)O)cc1 (stereo not drawn) [PBI 4425]	10,464 RLU	10,266 RLU	9,302 RLU	10,312 RLU	9,428 RLU	13,296 RLU	14,549 RLU	13,739 RLU	15,130 RLU	19,728 RLU	14,491 RLU	14,768 RLU	17,086 RLU	19,258 RLU	26,859 RLU	14,105 RLU	14,725 RLU	15,789 RLU	18,905 RLU	24,236 RLU	light signal increase upon addition of hydrogen peroxide (in words) [1]: much smaller
